Measurements reported in publication PMC12040169 (PLOS Biology, 2025).

How the values were obtained:
in vitro [1] = assay: in vitro; parameters: Viability of infected HeLa host cells, resazurin conversion, bulk resorufin fluorescence relative to DMSO; conditions: human, hela cells; bulk resorufin, mean of 2
in vitro [2] = conditions: human, hela cells, % viability
[3] = test system: T1, C. trachomatis L2/434/Bu expressing GFP (CTL2-GFP); assay: microbe, parasite or virus in culture; parameters: C. trachomatis total inclusion area by high-content imaging, normalised to DMSO; conditions: Chlamydia trachomatis, HeLa, 28.5 h; total inclusion area; read-out: % of control remaining
T1 construct: L2/434/Bu GFP intracellular growth in HeLa cells
Outline: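 GFP/resorufin bulk fluorescence read → fix → Hoechst stain → high-content imaging. Inclusion total area + count = growth proxy; nuclei count = host viability proxy. MIC calc per earlier method.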

[4] = test system: T2, CTL2-GFP (C. trachomatis L2/434/Bu, GFP-expressing); assay: microbe, parasite or virus in culture; parameters: Intracellular C. trachomatis growth in HeLa cells, bulk GFP fluorescence relative to DMSO; conditions: Chlamydia trachomatis, HeLa, 28.5 h; bulk GFP, mean of 2; read-out: % of control remaining
T2 construct: L2/434/Bu, GFP-expressing
Description: MICs were calculated as described above.

| SMILES | viability at 28.5 h, 1 µM (in vitro [1]) [%] | viability at 28.5 h, 5 µM (in vitro [1]) [%] | viability at 28.5 h, 10 µM (in vitro [1]) [%] | viability at 28.5 h, 10 µM (in vitro [2]) [%] | activity at 1 µM [3] [%] | activity at 5 µM [3] [%] | activity at 10 µM [3] [%] | activity at 1 µM [4] [%] | activity at 5 µM [4] [%] | activity at 10 µM [4] [%] |
| --- | --- | --- | --- | --- | --- | --- | --- | --- | --- | --- |
| Cc1cc2nc(-c3ccccn3)[nH]c2cc1C [CBK000122] | 94.7 | 90.3 | 89.1 | 119 | 97.4 | 31 | 9.06 | 129 | 36.8 | 14.3 |
| NCc1ccc2cccc(O)c2n1 [CBK001376T] | 109 | 112 | 110 | 85.6 | 66.3 | 31.4 | 6.97 | 80.5 | 19.7 | 1.06 |
| Cc1ccc(C(=O)NC2CCCC2)cc1[N+](=O)[O-] [CBK001993] | 112 | 110 | 104 | 102 | 116 | 89.8 | 50.4 | 123 | 123 | 110 |
| CC(C)(CN)CN(Cc1ccc(-c2ccccc2)cc1)C(=O)Nc1ccccc1C(C)(C)C [CBK002476C] | 118 | 114 | 63.6 | 94.2 | 114 | 50.1 | 2.01 | 98.7 | 75.3 | 16.4 |
| Fc1cccc(F)c1OCCOc1nc(N2CCNCC2)ccc1C(F)(F)F [CBK003977A] | 92.3 | 90.5 | 89.4 | 87 | 53.4 | 9.38 | 1.96 | 86.2 | 37.8 | 27.8 |
| CCOc1ccc(OCC)c2c1n(C)c(SC)[n+]2C [CBK005720G] | 90.5 | 86.2 | 83.6 | 92.1 | 97.5 | 27.2 | 3.38 | 139 | 64.8 | 9.96 |
| Cc1nc(C(=N)N)nc2ccccc12 [CBK010368C] | 98.3 | 94.3 | 88.2 | 86.3 | 60.8 | 35.9 | 41.3 | 94.1 | 66.1 | 65.1 |
| O=C(Nc1cccc2c(NC(=O)N3CCCCC3)cccc12)N1CCCCC1 [CBK010775] | 89.2 | 88.8 | 84.5 | 109 | 97.8 | 43.6 | 23.8 | 130 | 67.1 | 38.3 |
| COc1cc(N)c2ncccc2c1 [CBK011972C] | 101 | 81.1 | 80 | 77.7 | 85 | 10.9 | 1.09 | 90.6 | 23.4 | 7.94 |
| CC(=O)c1cc(-c2cccnc2)cs1 [CBK017637] | 113 | 110 | 110 | 82.4 | 86.9 | 83.4 | 98.2 | 140 | 120 | 123 |
| CC(=O)NC[C@H]1CN(c2ccc(-c3nnc(CCC#N)s3)c(F)c2)C(=O)O1 [CBK017926] | 93.8 | 92 | 95.7 | 87.1 | 15.4 | 0.206 | 0.193 | 19.4 | 2.09 | 3.05 |
| CC(=O)NC[C@H]1CN(c2ccc(-c3nnc([C@@H](C)N)s3)c(F)c2)C(=O)O1 [CBK017966] | 92.5 | 87.1 | 89.3 | 93.2 | 84.6 | 5.78 | 2.78 | 90.2 | 10 | 3.77 |
| O=C(O)c1cn(C2CC2)c2cc(N3CCN(C(=O)Cc4ccccc4Cl)CC3)c(F)cc2c1=O [CBK297136] | 88.5 | 89.1 | 93.4 |  | 145 | 74.4 | 16.8 | 153 | 90.9 | 28.4 |
| COc1cc(C=C2SC(NCC(=O)O)=NC2=O)ccc1OCc1ccc(Cl)cc1Cl [CBK297555] | 88.5 | 92.1 | 88.9 |  | 110 | 86.9 | 44 | 135 | 155 | 200 |
| Cn1nnnc1-c1cccc(NC(=O)c2ccc(Oc3ccccc3)cc2)c1 [CBK297872] | 95.1 | 88.4 | 89.1 |  | 118 | 74.5 | 30.8 | 124 | 73.3 | 27.8 |
| CC(Cc1nc(-c2nccn2C(C)C)cs1)n1cc(Cl)cn1 (stereo not drawn) [CBK304251] | 90.7 | 96.5 | 92.9 |  | 109 | 55.7 | 28.6 | 125 | 70.4 | 46.9 |
| Cc1cccc(OCC(C)NC(=O)NCCc2cnn(C)c2)c1 (stereo not drawn) [CBK304887] | 100 | 98.5 | 89.3 |  | 120 | 47.6 | 19.4 | 115 | 43.5 | 16.5 |
| COCCNc1nc2c(c(N3CCCCCC3)n1)CCNCC2 [CBK306724] | 98 | 97.9 | 92.9 |  | 79.4 | 0.64 | 0.424 | 76 | 7.81 | 4.81 |
